Measurements as given in PMC12037426, “Lipid Metabolism-Related Enzyme Inhibition and Antioxidant Potential of the Extracts and Phytochemical Compounds from Trachystemon orientalis (L.) D.Don” (Plant Foods for Human Nutrition (Dordrecht, Netherlands), 2025).
Like-named read-outs stand apart in the source and are kept apart here.

Legend:
[1] = design: method as in PMID 28122265; settings: cited from earlier work
PL = settings: cited from earlier work
[2] = system: RAW264.7 macrophage cells; design: method as in PMID 27514857; settings: cited from earlier work
[3] = Ferric reducing antioxidant power (FRAP) assay
Method: The Fe(II)-TPTZ complex, generated by the reduction of the TPTZ complex in the presence of antioxidants, has a blue colour and is measured at 595 nm. […] Absorbance measurements were recorded at 595 nm after 20 minutes at room temperature. […] FRAP values were reported as μM Trolox equivalents per gram of material.

[4] = Cupric-reducing antioxidant capacity (CUPRAC) assay
Method: CUPRAC assay was performed according to the modified protocol. Methanolic solutions of Trolox, utilized as a reference, were produced at varying concentrations (1000-62.5 μM). Subsequently, 1 mL of NH4CH3COO and 1 mL of CuCl2.2H2O and 1 of mL neocuproine (Nc) solutions were combined, followed by the addition of 0.5 mL of the sample solution (10 mg/mL) and 0.6 mL of distilled water (1.1-x) water into the mixture. Following the mixing of the tubes and incubation in darkness at ambient temperature for 30 minutes, the absorbance of the samples was measured at 450 nm. The antioxidant capacity of the samples was quantified as TEAC (μM) by comparison with Trolox, the reference chemical.

Pancreatic lipase (PL) = target: T1, Pancreatic lipase (PL) (Homo sapiens, UniProt P16233); test: Pancreatic lipase (PL) inhibition, p-nitrophenyl butyrate substrate; type: biochemical; settings: for IC50: mean ± SD of triplicate, read-out: Enzyme inhibitory activities IC50 ± SD, Pancreatic lipase (PL) (converted)
T1 sequence (P16233 17-465): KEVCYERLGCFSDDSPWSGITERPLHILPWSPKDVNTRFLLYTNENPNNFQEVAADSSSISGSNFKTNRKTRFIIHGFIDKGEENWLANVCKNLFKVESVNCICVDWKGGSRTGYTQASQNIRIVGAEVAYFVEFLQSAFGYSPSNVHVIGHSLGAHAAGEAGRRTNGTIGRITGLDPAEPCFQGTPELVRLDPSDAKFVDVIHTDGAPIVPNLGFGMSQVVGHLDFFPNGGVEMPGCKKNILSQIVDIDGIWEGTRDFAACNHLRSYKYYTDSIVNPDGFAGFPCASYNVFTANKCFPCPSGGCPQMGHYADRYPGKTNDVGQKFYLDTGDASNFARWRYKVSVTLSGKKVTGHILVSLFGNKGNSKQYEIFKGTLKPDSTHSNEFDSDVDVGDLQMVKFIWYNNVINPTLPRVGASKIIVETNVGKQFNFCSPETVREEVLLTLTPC
Method: PL inhibition was assessed utilizing p-nitrophenyl butyrate as a substrate. The extracts were diluted using a buffer solution (0.1 M Tris-HCl, pH 8.0) to achieve a final concentration range of 12.5-400 µg/mL. […] An enzyme solution (EC 3.1.1.3, 200 units/mL) and a substrate solution (10 mM) were formulated in a buffer solution.
The experimental procedure was structured in microplate wells A (90 µL enzyme solution, 5 µL substrate solution, 5 µL buffer solution), B (90 µL enzyme solution, 10 µL buffer solution), C (90 µL enzyme solution, 5 µL sample solution, 5 µL substrate solution), and D (90 µL enzyme solution, 5 µL sample solution, 5 µL buffer solution). Microplates were incubated at 37 °C for 15 minutes before to and following the addition of substrates. The absorbance values were measured at 405 nm, and the percentage of pancreatic lipase enzyme inhibition was calculated. All concentrations were conducted in triplicate.
% Pancreatic lipase inhibition = [(A-B)-(C-D)/(A-B)] × 100
The IC50 values of the samples on lipase were derived using the graph equation established by plotting the observed percentage of enzyme inhibition against the logarithm of the concentrations (ordinate and abscissa).

[5] = system: hypercholesterolemic rats; design: method as in PMID 39615784; settings: 100 mg/kg, hypercholesterolemic rats on a high-fat diet; cited from earlier work
3T3-L1 adipocytes = settings: cited from earlier work
[6] = system: hypercholesterolemic hamsters; settings: cited from earlier work

SMILES | radical scavenging ability [1] | PL IC50 (PL) [µg/mL] | lipid accumulation [2] | FRAP [3] [µM TEAC] | FRAP (iron reducing antioxidant power) ([3]; sample 10 mg/mL) [µM Trolox equivalent/gram] | CUPRAC [4] [µM TEAC] | CUPRAC (copper reducing antioxidant power) ([4]; sample 10 mg/mL) [µM Trolox equivalent/gram] | IC50 (Pancreatic lipase (PL)) [µM] | cholesterol and triglyceride levels [5] | PL inhibitory activity IC50 (PL) [µg/mL] | lipase inhibitory activity IC50 (PL) [µg/mL] | IC50 (PL; read-out: lipase inhibitory activity IC50) [µM] | inhibition at 100 µg/mL (Pancreatic lipase (PL); read-out: PL inhibition) [%] | adipogenesis (intracellular triglyceride content and lipid accumulation) (3T3-L1 adipocytes) | cytotoxicity (3T3-L1 adipocytes) | PL inhibition (PL; 100 µg/mL) [%] | PL inhibition (PL; 4 mg/mL) | PL inhibition (PL; first value of two) [%] | PL inhibition (PL; second value of two) [%] | cholesterol absorption and plasma cholesterol levels [6]
O=C(O)C(O)Cc1ccc(O)c(O)c1 (stereo not shown) [Danshensu, 3,4-dihydroxyphenyl lactic acid] | equivalent to that of quercetin | 65.160 ± 4.443 | reduce lipid accumulation | – | – | – | – | – | – | – | – | – | – | – | – | – | – | – | – | –
O=C(/C=C/c1ccc(O)c(O)c1)O[C@H](Cc1ccc(O)c(O)c1)C(=O)O [Rosmarinic acid] | equivalent to that of quercetin | – | – | 1274.400 ± 1.633 | 1274.400 ± 1.633 | 1801.389 ± 5.500 | 1801.389 ± 5.500 | 134 | improve cholesterol and triglyceride levels comparably to simvastatin | 125.2 | 49.421 ± 1.448 | 62.8 ± 2.7 | – | – | – | – | – | – | – | –
CC[C@H](CC[C@@H](C)[C@H]1CC[C@H]2[C@@H]3CC=C4C[C@@H](O)CC[C@]4(C)[C@H]3CC[C@]12C)C(C)C [β-sitosterol] | – | – | – | – | – | – | – | 101 | – | – | – | – | 68.5 | efficiently prevented adipogenesis | without including notable cytotoxicity | 79.1 ± 11.3 | 60.67% ± 0.53 | 2.99 ± 0.80 | 8.80 ± 4.15 | decrease cholesterol absorption and plasma cholesterol levels
